Data reported in paper PMC7242238 (Clinical Drug Investigation, 2020).
Like-named read-outs stand apart in the source and are kept apart here.

Columns and labels:
healthy subjects [1] = assay: CYP3A inhibitors study Cohort 1: safety assessments; format: in vivo, human; conditions: of 14 subjects, by treatment period
[2] = format: in vivo, human
[3] = CYP3A inducer study: pharmacokinetics of naldemedine alone or with rifampin; format: in vivo, human; conditions: for AUC(0-inf): AUC0–inf; for AUC(0-t): AUC0–last; for half-life: t1/2,z; for k el: λz
[4] = format: in vivo, human; conditions: for CL/F / AUC(0-inf) / AUC(0-t) / half-life / k el: Cohort 1: naldemedine 0.2 mg alone or with itraconazole 200 mg, n = 14; for AUC(0-inf): AUC0–inf; for AUC(0-t): AUC0–last; for half-life: t1/2,z; for k el: λz
[5] = format: in vivo, human; conditions: for CL/F / AUC(0-inf) / AUC(0-t) / half-life / k el: Cohort 2: naldemedine 0.2 mg alone or with fluconazole 200 mg, n = 14; for AUC(0-inf): AUC0–inf; for AUC(0-t): AUC0–last; for half-life: t1/2,z; for k el: λz
[6] = tested on: spontaneous bowel movements; conditions: cited from earlier work
healthy subjects [7] = assay: CYP3A inducer study: safety assessments; conditions: of 14 subjects; by treatment period
healthy subjects [8] = conditions: cited from earlier work
healthy subjects [9] = assay: P-gp inhibitor study: safety assessments; format: in vivo, human; conditions: of 13 subjects
healthy subjects [10] = assay: CYP3A inhibitors study Cohort 2: safety assessments; format: in vivo, human; conditions: of 14 subjects, by treatment period
[11] = 12 healthy male subjects; single oral 2-mg doses of 14C-naldemedine; cited from earlier work
[12] = coadministration of cyclosporine 600 mg vs naldemedine 0.4 mg alone
[13] = male, human, plasma, oral, 0.4 mg
[14] = male, human, plasma, po, 0.4 mg
[15] = coadministration of rifampin 600 mg QD vs naldemedine 0.2 mg alone
[16] = human, plasma, oral, 0.2 mg, naldemedine 0.2 mg alone or with rifampin 600 mg QD, n = 14, geometric mean (CV %)
[17] = human, plasma, oral, 0.2 mg, naldemedine 0.2 mg alone or with rifampin 600 mg QD, n = 14, mean (SD)
[18] = coadministration of itraconazole vs naldemedine 0.2 mg alone
[19] = human, plasma, oral, 0.2 mg, geometric mean (CV %)
[20] = human, plasma, oral, 0.2 mg, mean (SD)
[21] = coadministration of fluconazole vs naldemedine 0.2 mg alone

CC(C)(NC(=O)C1=C(O)[C@@H]2Oc3c(O)ccc4c3[C@@]23CCN(CC2CC2)[C@H](C4)[C@]3(O)C1)c1nc(-c2ccccc2)no1 [Naldemedine]
subjects with TEAEs (healthy subjects [1]): 7.1% | effect of coadministration on median naldemedine Tmax ([2]; coadministration of cyclosporine): not notably affected | increase of naldemedine AUC0–inf [2, 12]: 1.78 fold | increase of naldemedine AUC0–last [2, 12]: 1.79 fold | increase of naldemedine Cmax [2, 12]: 1.45 fold | AUC(0-inf) [2, 13]: 38.9 ng·h/mL | AUC(0-t) [2, 13]: 38.6 ng·h/mL | Cmax [2, 13]: 4.86 ng/mL | half-life [2, 13]: 10.6 h | k el [2, 13]: 1.81e-05 s⁻¹ | AUC(0-inf) [2, 14]: 39.5 ng·h/mL | AUC(0-t) [2, 14]: 39.1 ng·h/mL | Cmax [2, 14]: 4.9 ng/mL | Tmax [2, 14]: 0.75 h | half-life [2, 14]: 10.7 h | k el [2, 14]: 1.82e-05 s⁻¹ | CL/F ([2]; naldemedine 0.4 mg alone or with cyclosporine 600 mg, n = 13, geometric mean (CV %)): 10.3 (17.3) L/h | effect of coadministration on median naldemedine Tmax ([3]; coadministration of rifampin): not notably affected | decrease of naldemedine AUC0–last [3, 15]: 83% | decrease of naldemedine Cmax [3, 15]: 38% | Cmax ([3]; human, plasma, oral, 0.2 mg): 2.72 ng/mL | Tmax ([3]; human, plasma, oral, 0.2 mg): 1 h | AUC(0-inf) [3, 16]: 21.8 ng·h/mL | AUC(0-inf) [3, 17]: 22.1 ng·h/mL | AUC(0-t) [3, 16]: 21.5 ng·h/mL | AUC(0-t) [3, 17]: 21.8 ng·h/mL | half-life [3, 16]: 11.7 h | half-life [3, 17]: 11.9 h | k el [3, 16]: 1.64e-05 s⁻¹ | k el [3, 17]: 1.67e-05 s⁻¹ | Cmax ([3]; human, plasma, po, 0.2 mg): 2.8 ng/mL | CL/F ([3]; naldemedine 0.2 mg alone or with rifampin 600 mg QD, n = 14, geometric mean (CV %)): 9.19 (19.2) L/h | CL/F ([3]; naldemedine 0.2 mg alone or with rifampin 600 mg QD, n = 14, mean (SD)): 9.35 (1.86) L/h | Tmax ([3]; naldemedine 0.2 mg alone or with rifampin 600 mg QD, n = 14, median (range)): 1.00 (0.50, 2.50) h | CL/F ([4]; geometric mean (CV %)): 7.41 (37.7) L/h | CL/F ([4]; mean (SD)): 8.03 (4.39) L/h | effect of coadministration on median naldemedine Tmax ([4]; coadministration of itraconazole): not notably affected | increase of naldemedine AUC0–inf [4, 18]: 2.91 fold | increase of naldemedine AUC0–last [4, 18]: 2.65 fold | increase of naldemedine Cmax [4, 18]: 1.12 fold | Cmax ([4]; human, plasma, oral, 0.2 mg): 3.56 ng/mL | Tmax ([4]; human, plasma, oral, 0.2 mg): 0.75 h | AUC(0-inf) [4, 19]: 27 ng·h/mL | AUC(0-inf) [4, 20]: 28.3 ng·h/mL | AUC(0-t) [4, 19]: 26.7 ng·h/mL | AUC(0-t) [4, 20]: 28.1 ng·h/mL | half-life [4, 19]: 10.4 h | half-life [4, 20]: 10.7 h | k el [4, 19]: 1.85e-05 s⁻¹ | k el [4, 20]: 1.9e-05 s⁻¹ | Cmax ([4]; human, plasma, po, 0.2 mg): 3.77 ng/mL | CL/F ([5]; geometric mean (CV %)): 7.36 (16.5) L/h | CL/F ([5]; mean (SD)): 7.45 (1.16) L/h | effect of coadministration on median naldemedine Tmax ([5]; coadministration of fluconazole): not notably affected | increase of naldemedine AUC0–inf [5, 21]: 1.90 fold | increase of naldemedine AUC0–last [5, 21]: 1.88 fold | increase of naldemedine Cmax [5, 21]: 1.38 fold | Cmax ([5]; human, plasma, oral, 0.2 mg): 3.48 ng/mL | Tmax ([5]; human, plasma, oral, 0.2 mg): 1 h | AUC(0-inf) [5, 19]: 27.2 ng·h/mL | AUC(0-inf) [5, 20]: 27.5 ng·h/mL | AUC(0-t) [5, 19]: 26.9 ng·h/mL | AUC(0-t) [5, 20]: 27.3 ng·h/mL | half-life [5, 19]: 10.1 h | half-life [5, 20]: 10.4 h | k el [5, 19]: 1.9e-05 s⁻¹ | k el [5, 20]: 1.95e-05 s⁻¹ | Cmax ([5]; human, plasma, po, 0.2 mg): 3.57 ng/mL | clinical benefit compared with placebo ([6]; naldemedine 0.1 mg): no significant differences | clinical benefit (spontaneous bowel movements) compared with placebo ([6]; naldemedine 0.2- and 0.4-mg doses): significant clinical benefits | subjects with TEAEs (healthy subjects [7]): no TEAEs | dose linearity of pharmacokinetics (healthy subjects [8]; dose range of 0.2–0.4 mg): linear pharmacokinetics | safety and tolerability (healthy subjects [8]; naldemedine doses of 0.1 to 100 mg, healthy subjects): safe and well tolerated | subjects with TEAEs (healthy subjects [9]; naldemedine 0.4 mg alone or plus cyclosporine 600 mg): 7.7% | subjects with headache (TEAE) (healthy subjects [9]): 7.7% | subjects with TEAEs (healthy subjects [10]): 7.1%

CCC(C)n1ncn(-c2ccc(N3CCN(c4ccc(OCC5COC(Cn6cncn6)(c6ccc(Cl)cc6Cl)O5)cc4)CC3)cc2)c1=O (stereo not drawn) [itraconazole, reference compound]
subjects with TEAEs (healthy subjects [1]): 14.3%

CC(C)(NC(=O)C1=C(O)[C@@H]2Oc3c(O)ccc4c3[C@@]23CCN[C@H](C4)[C@]3(O)C1)c1nc(-c2ccccc2)no1 [nor-naldemedine]
share of the systemic exposure of unchanged naldemedine [11]: 9–13%
